# Patent publication US20040009195A1, “Modified sialic acid vaccines” (priority 2003, published 2004)
# Tested on: SK-Mel-28 human melanoma cells
# Assay: Expression of modified GD3 after incubation with modified precursors (flow cytometry, CE-MS)
# Type: cell-based
# Conditions: 1 mg/ml precursor concentration; in agreement with flow cytometry
# Experimental: SK-Mel-28 human melanoma cells normally expressing GD3 were incubated with modified sialic acid precursors. The modified sialic acid precursors used were N-acylated Mannosamines(“ManNAc”), including: N-propionyl mannosamine (“ManNPr”), N-butyril mannosamine (“ManNBu”), and N-benzoyl mannosamine (“ManNBz”).
# The incorporation and metabolism of the surface GD3 antigen were also investigated. […] Modified GD3 on SK-Mel-28 cells in vitro was still found 10 days after removal of precursors from the growth medium, when two populations of antigens, unmodified and modified GD3 were detected by mAb R24 and respective antiserum.
# The relative quantity of modified and unmodified GD3 expressed on the SK-Mel-28 was analysed by capillary electrophoresis-mass spectroscopy (“CE-MS”). The glycolipids extracted from cells grown in various concentrations of ManNBu were separated by capillary electrophoresis and negative charged glycolipids were detected. GD3 was the dominant ganglioside found in SK-Mel-28 cells. When ManNBu was added to the medium, the modified GD3 was biosynthesized and expressed.
structure (smiles),measurement,value
"CCCC(=O)N[C@@H]1C(O)O[C@H](CO)[C@@H](O)[C@@H]1O (stereo partly shown) [ManNBu, N-butyril mannosamine]",Relative expression of modified GD3 by CE-MS,well expressed
